Measurements taken from the supplement of paper PMC9013687.
± gives the standard deviation of the averaged measurements.

Assays:
[1] = tested on: Danio rerio embryo; assay: EC10 Pericard size_Increase; higher = less potent
Experimental: (§1)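 Zebrafish embryos (UFZ-OBI strain) were exposed from 2 hpf for 48 h (2 dpf) or 96 h (4 dpf) at 28 °C; spontaneous tail coiling was scored at 25 hpf. Morphological features from automated image analysis (FishInspector), heart rate and locomotor response were fitted with drc models. Quantal endpoints were dichotomised at 2.5 SD from controls and fitted with a log-logistic model; heart rate, pigmentation and STC were normalised to the replicate control mean. Betamethasone was tested as betamethasone dipropionate, diflorasone as diflorasone diacetate.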

[2] = tested on: Danio rerio embryo; assay: spontaneous tail coiling frequency (coils/min/embryo); higher = more spontaneous movement; conditions: 25 hpf
Experimental: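 Spontaneous tail coilings of zebrafish embryos exposed from 2 hpf were recorded at 24-25 hpf in 1-min videos and detected by a KNIME workflow from grey-value variance. Betamethasone was tested as the dipropionate, diflorasone as the diacetate.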

[3] = tested on: Danio rerio embryo
Experimental: as §1

[4] = tested on: Danio rerio embryo; conditions: exposure time: 4 dpf
Experimental: as §1

[5] = tested on: Danio rerio embryo; assay: EC10 Bladder size_Decrease; higher = less potent; conditions: exposure time: 4 dpf
Experimental: as §1

[6] = tested on: Danio rerio embryo; assay: EC20 Otolith-eye distance_Decrease; higher = less potent; conditions: exposure time: 4 dpf
Experimental: as §1

[7] = tested on: Danio rerio embryo; assay: EC50 Bladder size_Decrease; conditions: exposure time: 4 dpf
Experimental: as §1

[8] = tested on: Danio rerio embryo; assay: EC10 Otolith-eye distance_Decrease; higher = less potent; conditions: exposure time: 4 dpf
Experimental: as §1

[9] = tested on: Danio rerio embryo; assay: EC20 Pericard size_Increase; higher = less potent
Experimental: as §1

[10] = tested on: Danio rerio embryo; assay: EC20 Bladder size_Decrease; higher = less potent; conditions: exposure time: 4 dpf
Experimental: as §1

[11] = tested on: Danio rerio embryo; assay: EC20 LMR dark; higher = less potent; conditions: exposure time: 4 dpf
Experimental: as §1

[12] = tested on: Danio rerio embryo; assay: EC50 Body length_Decrease
Experimental: as §1

[13] = tested on: Danio rerio embryo; assay: EC20 Any effect; higher = less potent
Experimental: as §1

[14] = tested on: Danio rerio embryo; assay: EC50 Eye-jaw distance_Decrease; conditions: exposure time: 4 dpf
Experimental: as §1

[15] = tested on: Danio rerio embryo; assay: EC10 Eye-jaw distance_Decrease; higher = less potent; conditions: exposure time: 4 dpf
Experimental: as §1

[16] = tested on: Danio rerio embryo; assay: EC10 Head trunk angle_Decrease; higher = less potent; conditions: exposure time: 2 dpf
Experimental: as §1

[17] = tested on: Danio rerio embryo; assay: EC10 Curvature_Increase; higher = less potent
Experimental: as §1

[18] = tested on: Danio rerio embryo; assay: EC10 Yolk sac size_Increase; higher = less potent; conditions: exposure time: 4 dpf
Experimental: as §1

[19] = tested on: Danio rerio embryo; assay: EC10 Body length_Decrease; higher = less potent
Experimental: as §1

[20] = tested on: Danio rerio embryo; assay: EC20 Eye-jaw distance_Decrease; higher = less potent; conditions: exposure time: 4 dpf
Experimental: as §1

[21] = tested on: Danio rerio embryo; assay: EC50 Pericard size_Increase
Experimental: as §1

[22] = tested on: Danio rerio embryo; assay: EC50 Curvature_Increase
Experimental: as §1

[23] = tested on: Danio rerio embryo; assay: EC20 Yolk sac size_Increase; higher = less potent; conditions: exposure time: 4 dpf
Experimental: as §1

[24] = tested on: Danio rerio embryo; assay: EC50 Otolith-eye distance_Decrease; conditions: exposure time: 4 dpf
Experimental: as §1

[25] = tested on: Danio rerio embryo; assay: EC20 Curvature_Increase; higher = less potent
Experimental: as §1

[26] = tested on: Danio rerio embryo; assay: EC10 Any effect; higher = less potent
Experimental: as §1

[27] = tested on: Danio rerio embryo; assay: EC50 Yolk sac size_Increase; conditions: exposure time: 4 dpf
Experimental: as §1

[28] = tested on: Danio rerio embryo; assay: EC20 Body length_Decrease; higher = less potent
Experimental: as §1

[29] = tested on: Danio rerio embryo; assay: EC10 LMR dark; higher = less potent; conditions: exposure time: 4 dpf
Experimental: as §1

## CC(C)(C)C(O)/C(=C/c1ccc(Cl)cc1Cl)n1cncn1 (configuration not stated) [Diniconazole]
[1]; exposure time: 2 dpf
  EC10 Pericard size Increase: 1.54 µM
[1]; exposure time: 4 dpf
  EC10 Pericard size Increase: 3.8 µM
[2]; 1.13 µM
  spontaneous tail coiling frequency: 1.89
[2]; 1.7 µM
  spontaneous tail coiling frequency: 2.58 ± 0.22
[2]; 2.55 µM
  spontaneous tail coiling frequency: 2.31 ± 0.11
[2]; 3.8 µM
  spontaneous tail coiling frequency: 2.05 ± 0.38
[2]; 5.75 µM
  spontaneous tail coiling frequency: 2.87
[2]; 7.66 µM
  spontaneous tail coiling frequency: 3.42 ± 0.86
[2]; 9.2 µM
  spontaneous tail coiling frequency: 3.35
[3]; exposure time: 2 dpf
  EC50 Any effect: 3.77 µM
[3]; exposure time: 4 dpf
  EC50 Any effect: 2.61 µM
  EC50 LMR ligth decrease: 2.31 µM
  EC50 Pigmentation increase: 11.8 µM
[4]
  EC50 LMR dark: 4.3 µM
[5]
  EC10 Bladder size Decrease: 1.71 µM
[6]
  EC20 Otolith-eye distance Decrease: 4.28 µM
[7]
  EC50 Bladder size Decrease: 2.35 µM
[8]
  EC10 Otolith-eye distance Decrease: 3.74 µM
[9]; exposure time: 2 dpf
  EC20 Pericard size Increase: 2.51 µM
[9]; exposure time: 4 dpf
  EC20 Pericard size Increase: 3.81 µM
[10]
  EC20 Bladder size Decrease: 1.92 µM
[11]
  EC20 LMR dark: 2.86 µM
[12]; exposure time: 2 dpf
  EC50 Body length Decrease: 8.59 µM
[12]; exposure time: 4 dpf
  EC50 Body length Decrease: 6.97 µM
[13]; exposure time: 2 dpf
  EC20 Any effect: 3 µM
[13]; exposure time: 4 dpf
  EC20 Any effect: 1.89 µM
[14]
  EC50 Eye-jaw distance Decrease: 2.91 µM
[15]
  EC10 Eye-jaw distance Decrease: 2.39 µM
[16]
  EC10 Head trunk angle Decrease: 2.62 µM
[17]; exposure time: 2 dpf
  EC10 Curvature Increase: 3.94 µM
[17]; exposure time: 4 dpf
  EC10 Curvature Increase: 2.76 µM
[18]
  EC10 Yolk sac size Increase: 1.26 µM
[19]; exposure time: 2 dpf
  EC10 Body length Decrease: 6.73 µM
[19]; exposure time: 4 dpf
  EC10 Body length Decrease: 5.67 µM
[20]
  EC20 Eye-jaw distance Decrease: 2.57 µM
[21]; exposure time: 2 dpf
  EC50 Pericard size Increase: 5.78 µM
[21]; exposure time: 4 dpf
  EC50 Pericard size Increase: 3.83 µM
[22]; exposure time: 2 dpf
  EC50 Curvature Increase: 7.07 µM
[22]; exposure time: 4 dpf
  EC50 Curvature Increase: 6.35 µM
[23]
  EC20 Yolk sac size Increase: 1.74 µM
[24]
  EC50 Otolith-eye distance Decrease: 5.4 µM
[25]; exposure time: 2 dpf
  EC20 Curvature Increase: 4.89 µM
[25]; exposure time: 4 dpf
  EC20 Curvature Increase: 3.75 µM
[26]; exposure time: 2 dpf
  EC10 Any effect: 2.63 µM
[26]; exposure time: 4 dpf
  EC10 Any effect: 1.56 µM
[27]
  EC50 Yolk sac size Increase: 3.05 µM
[28]; exposure time: 2 dpf
  EC20 Body length Decrease: 7.36 µM
[28]; exposure time: 4 dpf
  EC20 Body length Decrease: 6.12 µM
[29]
  EC10 LMR dark: 2.25 µM

## C[Si](Cn1cncn1)(c1ccc(F)cc1)c1ccc(F)cc1 [Flusilazole]
[1]; exposure time: 4 dpf
  EC10 Pericard size Increase: 5.02 µM
[2]; 1.98167 µM
  spontaneous tail coiling frequency: 2.65
[2]; 3.96335 µM
  spontaneous tail coiling frequency: 1.93
[2]; 6.3 µM
  spontaneous tail coiling frequency: 1.95
[2]; 7.92669 µM
  spontaneous tail coiling frequency: 1.22
[2]; 9.4 µM
  spontaneous tail coiling frequency: 1.84
[2]; 14.1 µM
  spontaneous tail coiling frequency: 1.52
[2]; 15.8534 µM
  spontaneous tail coiling frequency: 0
[2]; 21.1 µM
  spontaneous tail coiling frequency: 0
[2]; 31.7 µM
  spontaneous tail coiling frequency: 0
[2]; 31.7068 µM
  spontaneous tail coiling frequency: 0
[2]; 47.6 µM
  spontaneous tail coiling frequency: 0
[3]; exposure time: 2 dpf
  EC50 Any effect: 7.6 µM
[3]; exposure time: 4 dpf
  EC50 Any effect: 2.65 µM
[3]; exposure time: 25 h
  EC50 STC decrease: 8.34 µM
[4]
  EC50 LMR dark: 2.77 µM
[5]
  EC10 Bladder size Decrease: 1.46 µM
[6]
  EC20 Otolith-eye distance Decrease: 4.25 µM
[7]
  EC50 Bladder size Decrease: 2.14 µM
[8]
  EC10 Otolith-eye distance Decrease: 3.65 µM
[9]; exposure time: 4 dpf
  EC20 Pericard size Increase: 5.53 µM
[10]
  EC20 Bladder size Decrease: 1.69 µM
[11]
  EC20 LMR dark: 1.72 µM
[12]; exposure time: 2 dpf
  EC50 Body length Decrease: 10.3 µM
[12]; exposure time: 4 dpf
  EC50 Body length Decrease: 3.04 µM
[13]; exposure time: 2 dpf
  EC20 Any effect: 6.04 µM
[13]; exposure time: 4 dpf
  EC20 Any effect: 1.92 µM
[14]
  EC50 Eye-jaw distance Decrease: 3.73 µM
[15]
  EC10 Eye-jaw distance Decrease: 2.2 µM
[17]; exposure time: 2 dpf
  EC10 Curvature Increase: 6.73 µM
[17]; exposure time: 4 dpf
  EC10 Curvature Increase: 2.07 µM
[18]
  EC10 Yolk sac size Increase: 3.89 µM
[19]; exposure time: 2 dpf
  EC10 Body length Decrease: 6.91 µM
[19]; exposure time: 4 dpf
  EC10 Body length Decrease: 2.31 µM
[20]
  EC20 Eye-jaw distance Decrease: 2.67 µM
[21]; exposure time: 4 dpf
  EC50 Pericard size Increase: 6.51 µM
[22]; exposure time: 2 dpf
  EC50 Curvature Increase: 9.58 µM
[22]; exposure time: 4 dpf
  EC50 Curvature Increase: 5.85 µM
[23]
  EC20 Yolk sac size Increase: 5.53 µM
[24]
  EC50 Otolith-eye distance Decrease: 5.51 µM
[25]; exposure time: 2 dpf
  EC20 Curvature Increase: 7.67 µM
[25]; exposure time: 4 dpf
  EC20 Curvature Increase: 3.03 µM
[26]; exposure time: 2 dpf
  EC10 Any effect: 5.28 µM
[26]; exposure time: 4 dpf
  EC10 Any effect: 1.6 µM
[27]
  EC50 Yolk sac size Increase: 10.1 µM
[28]; exposure time: 2 dpf
  EC20 Body length Decrease: 8.01 µM
[28]; exposure time: 4 dpf
  EC20 Body length Decrease: 2.55 µM
[29]
  EC10 LMR dark: 1.3 µM
